This is an account of results in patent publication US20240002425A1, “NOVEL AMINOALKYL GLUCOSAMINIDE 4-PHOSPHATE DERIVATIVE” (DAIICHI SANKYO COMPANY, LIMITED, priority 2020, published 2024).

This experiment addresses human TLR4 (Homo sapiens, UniProt O00206+Q9Y6Y9). The experiment can be described thus: Human TLR4 activating effect (HEK-Blue Human TLR4 Cells, SEAP reporter). The class given is cell-based. To be noted: 24 hours, SEAP Protein concentration, read-out: EC50 (ng/ml) (converted). As to the method:
The human TLR4 activating effect was studied using the compounds described in Examples 1 to 17 and monophosphoryl lipid A as Comparative Example A.
Triethanolamine was dissolved at 0.5% (v/v) in injectable distilled water to prepare an aqueous triethanolamine solution. 1 mg of each test drug was dissolved in 0.98 mL of the aqueous triethanolamine solution, and pH of the solution was then adjusted to 7.2 to 7.4 by the addition of 20 μL of 1 M HCl to prepare a 1 mg/mL solution. A dilution series of the test drug was prepared using a medium [DMEM (Nacalai Tesque, Inc.), 10% FBS (Sigma-Aldrich Co. LLC), 50 U/mL penicillin-50 μg/mL streptomycin (Thermo Fisher Scientific Inc.), 1×HEK-Blue Selection (InvivoGen), and 100 μg/mL Normocin (InvivoGen)]. 2×10^5 cells/mL HEK-Blue™ Human TLR4 Cells (InvivoGen) were inoculated to each well of a 96-well microplate for tissue culture (Iwaki), then treated with the test drug, and cultured at 37° C. for 24 hours under 5% CO2. The cells thus cultured were centrifuged at 400×g at 4° C. for 3 minutes. Recombinant SEAP Protein (InvivoGen) was used for a calibration curve. After addition of 180 μL of QUANTI-Blue (InvivoGen) to each well of 96 Well TC-Treated Microplates (Corning, Inc.), 20 μL each of the cell culture supernatant and a standard diluting solution was added to each well, and the plate was left standing at 37° C. for 4 hours. After reaction, absorbance (wavelength: 655 nm) was measured using a microplate reader (PerkinElmer, Inc., EnSpire), and a SEAP Protein concentration was calculated from the calibration curve and used as an index for TLR4 agonist activity. A drug concentration that induced reaction corresponding to 50% of the maximum reaction was calculated as EC50 (ng/mL) from a linear expression using two drug concentrations between which the drug concentration that induced reaction corresponding to 50% of the maximum reaction in each experiment was positioned, and measured values thereof.

Chain of human TLR4 (O00206 24-839): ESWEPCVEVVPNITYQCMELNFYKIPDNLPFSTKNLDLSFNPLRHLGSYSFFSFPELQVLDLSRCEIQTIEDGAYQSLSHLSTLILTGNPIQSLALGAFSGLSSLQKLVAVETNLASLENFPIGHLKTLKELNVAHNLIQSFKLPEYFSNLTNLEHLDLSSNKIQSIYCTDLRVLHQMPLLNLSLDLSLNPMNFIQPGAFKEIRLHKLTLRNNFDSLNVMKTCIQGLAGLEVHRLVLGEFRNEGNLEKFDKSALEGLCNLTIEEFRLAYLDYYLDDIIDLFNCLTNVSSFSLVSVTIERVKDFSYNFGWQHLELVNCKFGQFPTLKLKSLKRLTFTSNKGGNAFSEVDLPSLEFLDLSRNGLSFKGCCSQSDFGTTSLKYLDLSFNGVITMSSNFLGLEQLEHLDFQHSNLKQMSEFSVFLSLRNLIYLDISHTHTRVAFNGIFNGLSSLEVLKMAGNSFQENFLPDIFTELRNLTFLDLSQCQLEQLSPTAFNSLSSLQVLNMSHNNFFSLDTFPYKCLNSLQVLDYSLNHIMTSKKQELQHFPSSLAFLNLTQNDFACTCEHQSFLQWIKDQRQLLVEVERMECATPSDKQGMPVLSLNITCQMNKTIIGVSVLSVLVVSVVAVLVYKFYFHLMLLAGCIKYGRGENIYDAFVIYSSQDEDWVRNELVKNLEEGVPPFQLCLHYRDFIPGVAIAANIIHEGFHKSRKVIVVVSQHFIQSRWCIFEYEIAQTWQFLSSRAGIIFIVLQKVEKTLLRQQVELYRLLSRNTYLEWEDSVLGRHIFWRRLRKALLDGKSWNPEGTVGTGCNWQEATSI
Chain of human TLR4 (Q9Y6Y9 17-160 limits assumed): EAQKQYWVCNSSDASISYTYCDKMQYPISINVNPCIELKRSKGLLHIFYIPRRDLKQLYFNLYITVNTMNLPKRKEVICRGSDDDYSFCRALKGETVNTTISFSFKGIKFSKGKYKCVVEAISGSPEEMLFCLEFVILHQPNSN

Turning to `CCCCCCCCCCC[C@H](CC(=O)NC1C(CC[C@H](NC(=O)C[C@@H](CCCCCCCCCCC)OCCCCCCCCCC)C(=O)O)OC(CO)C(OP(=O)(O)O)C1OC(=O)C[C@@H](CCCCCCCCCCC)OCCCCCCCCCC)OCCCCCCCCCC` (stereo partly drawn) [Example 17(17h), Ammonium 5,9-anhydro-7-O-[(3R)-3-(decyloxy)tetradecanoyl]-2,6-bis{[(3R)-3-(decyloxy)tetradecanoyl]amino}-2,3,4,6-tetradeoxy-8-O-phosphono-D-erythro-L-galacto-decanoate], the EC50 was 0.969 nM.
Take `CCCCCCCCCCC[C@H](CC(=O)NC1C(OC[C@@H](CC(=O)O)NC(=O)C[C@@H](CCCCCCCCCCC)OC(=O)CCCCCCCCC)OC(COC2(C(=O)O)CC(OC3(C(=O)O)CC(O)C(O)C([C@H](O)CO)O3)C(O)C([C@H](O)CO)O2)C(OP(=O)(O)O)C1OC(=O)C[C@@H](CCCCCCCCCCC)OC(=O)CCCCCCCCC)OC(=O)CCCCCCCCC` (stereo partly drawn) [Example 3(3d), Ammonium (3R)-3-{[(3R)-3-(decanoyloxy)tetradecanoyl]amino}-4-{[3-deoxy-α-D-manno-oct-2-ulopyranonosyl-(2-+4)-3-deoxy-α-D-manno-oct-2-ulopyranonosyl-(2-+6)-3-O-[(3R)-3-(decanoyloxy)tetradecanoyl]-2-{[(3R)-3-(decanoyloxy)tetradecanoyl]amino}-2-deoxy-4-O-phosphono-β-D-glucopyranosyl]oxy}butanoate]: the EC50 is 0.422 nM.
Next, `CCCCCCCCCCC[C@H](CC(=O)N[C@@H](CO[C@@H]1O[C@H](CO)[C@@H](OP(=O)(O)O)[C@H](OC(=O)C[C@@H](CCCCCCCCCCC)OC(=O)CCCCCCCCC)[C@H]1NC(=O)C[C@@H](CCCCCCCCCCC)OC(=O)CCCCCCCCC)CC(=O)O)OC(=O)CCCCCCCCC` [Example 1(1k), Bisammonium (3R)-3-{[(3R)-3-(decanoyloxy)tetradecanoyl]amino}-4-({3-O-[(3R)-3-(decanoyloxy)tetradecanoyl]-2-{[(3R)-3-(decanoyloxy)tetradecanoyl]amino}-2-deoxy-4-O-phosphono-β-D-glucopyranosyl}oxy)butanoate]: 0.612 nM; `CCCCCCCCCCC[C@H](CC(=O)NC1C(OC[C@H](NC(=O)C[C@@H](CCCCCCCCCCC)OC(=O)CCCCCCCCC)C(=O)O)OC(COC2(C(=O)O)CC(OC3(C(=O)O)CC(O)C(O)C([C@H](O)CO)O3)C(O)C([C@H](O)CO)O2)C(OP(=O)(O)O)C1OC(=O)C[C@@H](CCCCCCCCCCC)OC(=O)CCCCCCCCC)OC(=O)CCCCCCCCC` (stereo partly drawn) [Example 5(5d), Ammonium (2S)-2-{[(3R)-3-(decanoyloxy)tetradecanoyl]amino}-3-{[3-deoxy-α-D-manno-oct-2-ulopyranonosyl-(2-+4)-3-deoxy-α-D-manno-oct-2-ulopyranonosyl-(2-+6)-3-O-[(3R)-3-(decanoyloxy)tetradecanoyl]-2-{[(3R)-3-(decanoyloxy)tetradecanoyl]amino}-2-deoxy-4-O-phosphono-β-D-glucopyranosyl]oxy}propanoate]: 0.187 nM.
Take `CCCCCCCCCCC[C@H](CC(=O)NC1C(CC[C@H](NC(=O)C[C@@H](CCCCCCCCCCC)OC(=O)CCCCCCCCC)C(=O)O)OC(CF)C(OP(=O)(O)O)C1OC(=O)C[C@@H](CCCCCCCCCCC)OC(=O)CCCCCCCCC)OC(=O)CCCCCCCCC` (stereo partly drawn) [Example 16(16b), Ammonium 5,9-anhydro-7-O-[(3R)-3-(decanoyloxy)tetradecanoyl]-2,6-bis{[(3R)-3-(decanoyloxy)tetradecanoyl]amino}-2,3,4,6,10-pentadeoxy-10-fluoro-8-O-phosphono-D-erythro-L-galacto-decanoate]: the EC50 is 1.01 nM.
Regarding `CCCCCCCCCCC[C@H](CC(=O)N[C@H]1[C@H](OC[C@H](NC(=O)C[C@@H](CCCCCCCCCCC)OC(=O)CCCCCCCCC)C(=O)O)O[C@H](CO[C@@H]2O[C@H](CO)[C@@H](OP(=O)(O)O)[C@H](O)[C@H]2NC(C)=O)[C@@H](OP(=O)(O)O)[C@@H]1OC(=O)C[C@@H](CCCCCCCCCCC)OC(=O)CCCCCCCCC)OC(=O)CCCCCCCCC` [Example 8(8f), Ammonium (2S)-3-({6-O-[2-acetamido-2-deoxy-4-O-(hydroxyphosphinato)-β-D-glucopyranosyl]-3-O-[(3R)-3-(decanoyloxy)tetradecanoyl]-2-{[(3R)-3-(decanoyloxy)tetradecanoyl]amino}-2-deoxy-4-O-phosphono-β-D-glucopyranosyl}oxy)-2-{[(3R)-3-(decanoyloxy)tetradecanoyl]amino}propanoate], the EC50 is 0.35 nM.
For the molecule `CCCCCCCCCCC[C@H](CC(=O)NC1C(OC[C@H](NC(=O)C[C@@H](CCCCCCCCCCC)OC(=O)CCCCCCCCC)C(=O)O)OC(COC2OC(C(=O)O)C(O)C(O)C2O)C(OP(=O)(O)O)C1OC(=O)C[C@@H](CCCCCCCCCCC)OC(=O)CCCCCCCCC)OC(=O)CCCCCCCCC` (stereo partly drawn) [Example 6(6b), Ammonium (2S)-2-{[(3R)-3-(decanoyloxy)tetradecanoyl]amino}-3-({3-O-[(3R)-3-(decanoyloxy)tetradecanoyl]-2-{[(3R)-3-(decanoyloxy)tetradecanoyl]amino}-2-deoxy-6-β-D-glucopyranuronosyl-4-O-phosphono-β-D-glucopyranosyl}oxy)propanoate], the EC50 was 0.0661 nM.
Next, `CCCCCCCCCCC[C@H](CC(=O)N[C@H]1[C@H](OC[C@H](NC(=O)C[C@@H](CCCCCCCCCCC)OC(=O)CCCCCCCCC)C(=O)O)O[C@H](CO[C@@H]2O[C@H](COP(=O)(O)O)[C@@H](O)[C@H](O)[C@H]2NC(C)=O)[C@@H](OP(=O)(O)O)[C@@H]1OC(=O)C[C@@H](CCCCCCCCCCC)OC(=O)CCCCCCCCC)OC(=O)CCCCCCCCC` [Example 9(9e), Ammonium (2S)-3-({6-O-[2-acetamido-2-deoxy-6-O-(hydroxyphosphinato)-β-D-glucopyranosyl]-3-O-[(3R)-3-(decanoyloxy)tetradecanoyl]-2-{[(3R)-3-(decanoyloxy)tetradecanoyl]amino}-2-deoxy-4-O-phosphono-β-D-glucopyranosyl}oxy)-2-{[(3R)-3-(decanoyloxy)tetradecanoyl]amino}propanoate]: 0.288 nM; `CCCCCCCCCCC[C@H](CC(=O)N[C@H]1[C@H](OC[C@H](NC(=O)C[C@@H](CCCCCCCCCCC)OC(=O)CCCCCCCCC)C(=O)O)O[C@H](CO[C@@H]2O[C@H](CO)[C@@H](O)[C@H](O)[C@H]2NC(C)=O)[C@@H](OP(=O)(O)O)[C@@H]1OC(=O)C[C@@H](CCCCCCCCCCC)OC(=O)CCCCCCCCC)OC(=O)CCCCCCCCC` [Example 7(7c), Ammonium (2S)-3-{[6-O-(2-acetamido-2-deoxy-β-D-glucopyranosyl)-3-O-[(3R)-3-(decanoyloxy)tetradecanoyl]-2-{[(3R)-3-(decanoyloxy)tetradecanoyl]amino}-2-deoxy-4-O-phosphono-β-D-glucopyranosyl]oxy}-2-{[(3R)-3-(decanoyloxy)tetradecanoyl]amino}propanoate]: 0.396 nM.
Regarding `CCCCCCCCCCC[C@H](CC(=O)NC1C(CC[C@H](NC(=O)C[C@@H](CCCCCCCCCCC)OC(=O)CCCCCCCCC)C(=O)O)OC(COC2(C(=O)O)CC(O)C(O)C([C@H](O)CO)O2)C(OP(=O)(O)O)C1OC(=O)C[C@@H](CCCCCCCCCCC)OC(=O)CCCCCCCCC)OC(=O)CCCCCCCCC` (stereo partly drawn) [Example 14(14d), Ammonium 5,9-anhydro-7-O-[(3R)-3-(decanoyloxy)tetradecanoyl]-2,6-bis{[(3R)-3-(decanoyloxy)tetradecanoyl]amino}-2,3,4,6-tetradeoxy-10-O-(3-deoxy-α-D-manno-oct-2-ulopyranonosyl)-8-O-phosphono-D-erythro-L-galacto-decanoate], the EC50 was 0.188 nM.
